Test results published in patent publication EP0390112B1, “Selective adenosine receptor agents” (MERRELL PHARMACEUTICALS INC., priority 1989, dated 1990).

How the values were obtained:
[1] = target: T1, Adenosine A-1 receptor (Rattus norvegicus, UniProt P25099); assay: Test for affinity for brain adenosine A-1 receptor binding sites ([3H]cyclohexyladenosine competition); conditions: [3H]cyclohexyladenosine 0.8 nM, rat brain membranes, 25°C, 2 hours
T1 construct: the membranes are isolated from whole animal brains; from tissue; host or cells: whole brain of male Sprague-Dawley rats
T1 sequence (P25099 1-326): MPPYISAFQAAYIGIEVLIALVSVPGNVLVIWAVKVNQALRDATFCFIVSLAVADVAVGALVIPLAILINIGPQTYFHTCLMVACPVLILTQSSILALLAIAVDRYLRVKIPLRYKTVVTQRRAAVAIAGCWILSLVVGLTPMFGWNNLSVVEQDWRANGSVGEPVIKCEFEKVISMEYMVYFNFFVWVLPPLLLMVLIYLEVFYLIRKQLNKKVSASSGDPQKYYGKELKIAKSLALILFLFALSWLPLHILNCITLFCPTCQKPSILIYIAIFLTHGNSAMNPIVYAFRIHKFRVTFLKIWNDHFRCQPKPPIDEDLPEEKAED
Description: Test For Affinity For Brain Adenosine A-1 Receptor Binding Sites
The test described below is used to determine the potency of test compounds to compete with the ligand [3H]cycloadenosine for the Adenosine A-1 receptor prepared from rat brain membranes. Male Sprague-Dawley rats are sacrificed by decapitation and the membranes are isolated from whole animal brains. (See R. Goodman, M. Cooper, M. Gavish, and S. Synder, Guanine Nucleotide and Cation Regulation of the Binding of [3H] Diethylphenylxanthine to Adenosine A-1 Receptors in Brain Membrane, Molecular Pharmacology, 21, 329-335, (1982), incorporated herein by reference.)
Membranes are homogenized (using polytron setting 7 for 10 seconds) in 25 volumes of ice-cold 50 mM Tris-HCl buffer, pH 7.7. The homogenate is centrifuged at 19,000 rpm for 10 minutes at 4°C. The pellet is washed by resuspending in 25 volumes of buffer with 2 IU of adenosine deaminase per ml and incubated 30 minutes at 37°C. The homogenate is centrifuged again. The final pellet is resuspended in 25 volumes of ice-cold buffer.
The incubation tubes, in triplicate, receive 100 µl of [3H]cyclohexyladenosine, 0.8 nM in the assay, 200 µl of test compounds at various concentrations over the range of 10^-10 M to 10^-6 M diluted with […] Tris-HCl buffer (pH 7.7), 0.2 ml of membrane suspension (8 mg wet weight) and in a final volume of 2 ml with Tris buffer. Incubations are carried out at 25°C for 2 hours and each one is terminated within 10 seconds by filtration through a GF/B glass fiber filter using a vacuum. The membranes on the filters are transferred to scintillation vials. The filters are counted by liquid scintillation spectometry in 8 ml of Omniflour containing 5% Protosol.
Specific binding of [3H]cycloadenosine is measured as the excess over blanks taken in the presence of 10^-5 M 2-chloroadenosine. Total membrane-bound radioactivity is about 5% of that added to the test tubes. Specific binding to membranes is about 90% of the total bound. Protein content of the membrane suspension is determined by the method of Lowry, et al. Id., 265.
Displacement of [3H]cyclohexyladenosine binding of 15% or more by a test compound is indicative of affinity for the adenosine binding site.

[2] = target: T2, adenosine A-2 receptors (Rattus norvegicus, UniProt P30543); assay: Test for affinity for brain adenosine A-2 receptors ([3H]NECA competition); format: binding; conditions: rat brain striatum membranes, 25°C, 60 minutes, read-out: A-2 Receptor Ki
T2 construct: the adenosine A-2 receptors prepared from animal brain membranes; from tissue; host or cells: striatum of young male rats (C-D strain, Charles River)
Description: Test For Affinity For Brain Adenosine A-2 Receptors
The test described below was used to determine the potency of test compounds to compete with the ligand [3H]5′-N-ethyl-carboxamidoadenosine (NECA) for the adenosine A-2 receptors prepared from animal brain membranes. (See also R.R. Bruns, G.H. Lu, and T.A. Pugsley, Characterization of the A-2 Adenosine Receptor Labeled by [3H]NECA in Rat Striatal Membranes, Mol. Pharmacol., 29, 331-346, (1986), incorporated herein by reference.) Young male rats (C-D strain), obtained from Charles River, are killed by decapitation and the brain was removed. Membranes for ligand binding are isolated from rat brain striatum. The tissue is homogenized in 20 vol ice-cold 50 mM Tris-HCl buffer (pH 7.7) using a polytron (setting 6 for 20 seconds). The homogenate is centrifuged at 50,000 x g for 10 minutes at 4°C. The pellet is again homogenized in a polytron in 20 vol of buffer, and centrifuged as before. The pellet is finally resuspended in 40 vol of 50mM Tris-HCl (pH 7.7) per gram of original wet weight of tissue.
Incubation tubes, in triplicate, receive 100 µl of [3H]NECA (94 nM in the assay), 100 µl of 1 µM cyclohexyladenosine (CHA), 100 µl of 100 mM MgCl2, 100 µl of 1 IU/ml adenosine deaminase, 100 µl of test compounds at various concentrations over the range of 10^-10 M to 10^-4 M diluted with assay buffer (50 mM Tris-HCl, pH 7.7) and […] of membrane suspension (5 mg wet weight), in a final volume of 1 ml of 50 mM Tris-HCl, pH 7.7. Incubations are carried out at 25°C for 60 minutes. Each tube is filtered through GF/B glass fiber filters using a vacuum. The filters are rinsed two times with 5 ml of the ice-cold buffer. The membranes on the filters are transferred to scintillation vials to which 8 ml of Omnifluor with 5% Protosol is added. The filters are counted by liquid scintillation spectrometry.
Specific binding of [3H]NECA is measured as the excess over blanks run in the presence of 100 µM 2-chloroadenosine. Total membrane-bound radioactivity is about 2.5% of that added to the test tubes. […] Specific binding to membranes is about 50% of the total bound. Protein content of the membrane suspension is determined by the method of O.H. Lowry, N.J. Rosebrough, A.L. Farr and R.J. Randall, Protein Measurements With Folin Phenol Reagent, J. Biol. Chem., 193, 265-275 (1951), (incorporated herein by reference).
Displacement of [3H]NECA binding of 15% or more by a test compound is indicative of affinity for the adenosine A-2 site. The molar concentration of a compound which causes 50% inhibition of the binding of ligand is the IC50.

[3] = target: A-2 receptors; conditions: brain slice assay; cited from earlier work

T2 sequence (P30543 whole entry): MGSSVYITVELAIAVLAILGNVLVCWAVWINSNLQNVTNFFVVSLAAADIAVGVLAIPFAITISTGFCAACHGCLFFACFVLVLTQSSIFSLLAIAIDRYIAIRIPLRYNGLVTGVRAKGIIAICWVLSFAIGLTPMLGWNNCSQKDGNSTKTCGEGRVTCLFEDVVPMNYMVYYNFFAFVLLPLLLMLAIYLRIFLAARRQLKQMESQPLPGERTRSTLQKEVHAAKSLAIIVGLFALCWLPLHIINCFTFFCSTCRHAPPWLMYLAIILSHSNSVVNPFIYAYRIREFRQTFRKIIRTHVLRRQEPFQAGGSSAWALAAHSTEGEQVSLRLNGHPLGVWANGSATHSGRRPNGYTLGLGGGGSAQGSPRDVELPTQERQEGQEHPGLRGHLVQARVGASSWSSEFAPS

SMILES | Ki [1] [nM] | Ki [2] [nM] | Ki [3] [nM]
CCCOc1nc(N[C@H](C)Cc2ccccc2)c2cnn(-c3ccccc3)c2n1 [Compound 1, (R)-N-(1-methyl-2-phenylethyl)-1-phenyl-6-propoxy-1H-pyrazolo[3,4-d]pyrimidin-4-amine] | 2010 | 3630 | –
CCCOc1nc(N[C@@H](C)Cc2ccccc2)c2cnn(-c3ccccc3)c2n1 [Compound 2, (S)-N-(1-methyl-2-phenylethyl)-1-phenyl-6-propoxy-1H-pyrazolo[3,4-d]pyrimidin-4-amine] | 11300 | > 6990 | –
CCCOc1nc(N[C@H](CO)Cc2ccccc2)c2cnn(-c3ccccc3)c2n1 [Compound 3, (S)-β-[(1-phenyl-6-propoxy-1H-pyrazolo[3,4-d]pyrimidin-4-yl)amino]benzenepropanol] | 1740 | 2900 | –
CCCOc1nc(N[C@@H](CO)Cc2ccccc2)c2cnn(-c3ccccc3)c2n1 [Compound 4, (R)-β-[(1-phenyl-6-propoxy-1H-pyrazolo[3,4-d]pyrimidin-4-yl)amino]benzenepropanol] | 321 | 377 | –
CCCOc1nc(N[C@@H](CO)Cc2ccccc2)c2ncn([C@@H]3O[C@H](CO)[C@@H](O)[C@H]3O)c2n1 [Compound 5] | 3700 | 17200 | –
CCCOc1nc(N[C@H](CO)Cc2ccccc2)c2ncn([C@@H]3O[C@H](CO)[C@@H](O)[C@H]3O)c2n1 [Compound 6] | 44 | 1900 | –
CCCn1c(=O)c2[nH]c(-c3ccc(OCC(=O)NCCN)cc3)nc2n(CCC)c1=O [XAC, amino congener of 8-phenyl-1,3-dipropyl-xanthine] | – | – | 49 ± 17
CCCn1c(=O)c2[nH]c(-c3ccc(OCC(=O)O)cc3)nc2n(CCC)c1=O [XCC, carboxylic acid congener of 8-phenyl-1,3-dipropyl-xanthine] | – | – | 34 ± 13
